Among the data in patent US10556927B2 (priority 2014, dated 2020) are current after loading, current before loading and inhibition rate values, retold here.

In this test the test system is HVA calcium channel currents in DRG neuronal cells. The class given is cell-based, rat.

As to `COC(=O)C1=C(C)NC(C)=C(C(=O)OC)C1c1ccccc1[N+](=O)[O-]` [Nifedipine], the current after loading is on record as −734.31 pA and the current before loading is recorded as −1471.35 pA. In addition, the inhibition rate (10 µM) came to 50.09%.
